Measured values reported in ChEMBL document CHEMBL3885881, “DrugMatrix”.

Species on record: Rattus norvegicus
Assay: DrugMatrix - Regimen: Daily Repeat
Type: toxicity, organism-based, Sprague-Dawley
Set-up: regimen Daily Repeat, gender Male, age 6-8 weeks
Conditions: in vivo, po, route oral GAVAGE, vehicle 100 % WATER; for ABSOLUTE BASOPHIL / ABSOLUTE EOSINOPHIL / ABSOLUTE LYMPHOCYTE / ABSOLUTE MONOCYTE / ABSOLUTE SEGMENTED NEUTROPHIL / BASOPHIL / EOSINOPHIL / ERYTHROCYTE COUNT / HEMATOCRIT / HEMOGLOBIN / LEUKOCYTE COUNT / LYMPHOCYTE / MEAN CORPUSCULAR HEMOGLOBIN / MEAN CORPUSCULAR HEMOGLOBIN CONCENTRATION / MEAN CORPUSCULAR VOLUME / MONOCYTE / NEUTROPHIL / NUCLEATED RED BLOOD CELLS / PLATELET COUNT: tissue Blood; for ALANINE AMINOTRANSFERASE / ALBUMIN / ALKALINE PHOSPHATASE / ASPARTATE AMINOTRANSFERASE / BLOOD UREA NITROGEN / CARBON DIOXIDE / CHLORIDE / CHOLESTEROL / CREATINE PHOSPHOKINASE / CREATININE / GLUCOSE / LACTATE DEHYDROGENASE / LIPASE / PHOSPHORUS / POTASSIUM / SODIUM / TOTAL BILIRUBIN / TOTAL PROTEIN / URIC ACID: tissue Plasma
[1] = 0 mg/kg, 72 h, dose level Control, time 3 day
[2] = 0 mg/kg, 120 h, dose level Control, time 5 day
[3] = 28 mg/kg, 72 h, dose level Low, time 3 day

Cn1cc[nH]c1=S [METHIMAZOLE]
ABSOLUTE BASOPHIL [1]: 0 CELLS/uL
ABSOLUTE EOSINOPHIL [1]: 0 CELLS/uL
ABSOLUTE LYMPHOCYTE [1]: 8482.5 CELLS/uL
ABSOLUTE MONOCYTE [1]: 63.83 CELLS/uL
ABSOLUTE SEGMENTED NEUTROPHIL [1]: 887 CELLS/uL
BASOPHIL [1]: 0%
EOSINOPHIL [1]: 0%
ERYTHROCYTE COUNT [1]: 5.49 x10E6/uL
HEMATOCRIT [1]: 34.5%
HEMOGLOBIN [1]: 13.33 G/DL
LEUKOCYTE COUNT [1]: 9.43 x10E3/uL
LYMPHOCYTE [1]: 90.17%
MEAN CORPUSCULAR HEMOGLOBIN [1]: 24.3 pg
MEAN CORPUSCULAR HEMOGLOBIN CONCENTRATION [1]: 38.63 G/DL
MEAN CORPUSCULAR VOLUME [1]: 62.88 fL
MONOCYTE [1]: 0.67%
NEUTROPHIL [1]: 9.17%
NUCLEATED RED BLOOD CELLS [1]: 0.67 /100WBC
PLATELET COUNT [1]: 1022.83 x10E3/uL
ALANINE AMINOTRANSFERASE [1]: 50.5 u/L
ALBUMIN [1]: 4.08 G/DL
ALKALINE PHOSPHATASE [1]: 368.33 u/L
ASPARTATE AMINOTRANSFERASE [1]: 87.5 u/L
BLOOD UREA NITROGEN [1]: 12.83 mg/dL
CARBON DIOXIDE [1]: 32.83 mmol/L
CHLORIDE [1]: 99.67 MEQ/L
CHOLESTEROL [1]: 79.67 mg/dL
CREATINE PHOSPHOKINASE [1]: 585 u/L
CREATININE [1]: 0.22 mg/dL
GLUCOSE [1]: 135.67 mg/dL
LACTATE DEHYDROGENASE [1]: 171 u/L
LIPASE [1]: 9.5 u/L
PHOSPHORUS [1]: 11.18 mg/dL
POTASSIUM [1]: 6.25 MEQ/L
SODIUM [1]: 144.87 MEQ/L
TOTAL BILIRUBIN [1]: 0.2 mg/dL
TOTAL PROTEIN [1]: 6.08 G/DL
URIC ACID [1]: 0.65 mg/dL
ABSOLUTE BASOPHIL [2]: 0 CELLS/uL
ABSOLUTE EOSINOPHIL [2]: 14.5 CELLS/uL
ABSOLUTE LYMPHOCYTE [2]: 7596.17 CELLS/uL
ABSOLUTE MONOCYTE [2]: 69.67 CELLS/uL
ABSOLUTE SEGMENTED NEUTROPHIL [2]: 503 CELLS/uL
BASOPHIL [2]: 0%
EOSINOPHIL [2]: 0.17%
ERYTHROCYTE COUNT [2]: 5.49 x10E6/uL
HEMATOCRIT [2]: 34.72%
HEMOGLOBIN [2]: 13.47 G/DL
LEUKOCYTE COUNT [2]: 8.18 x10E3/uL
LYMPHOCYTE [2]: 92.17%
MEAN CORPUSCULAR HEMOGLOBIN [2]: 24.57 pg
MEAN CORPUSCULAR HEMOGLOBIN CONCENTRATION [2]: 38.82 G/DL
MEAN CORPUSCULAR VOLUME [2]: 63.3 fL
MONOCYTE [2]: 1%
NEUTROPHIL [2]: 6.67%
NUCLEATED RED BLOOD CELLS [2]: 0 /100WBC
PLATELET COUNT [2]: 1141 x10E3/uL
ALANINE AMINOTRANSFERASE [2]: 48.33 u/L
ALBUMIN [2]: 4.07 G/DL
ALKALINE PHOSPHATASE [2]: 395.67 u/L
ASPARTATE AMINOTRANSFERASE [2]: 85.67 u/L
BLOOD UREA NITROGEN [2]: 15.83 mg/dL
CARBON DIOXIDE [2]: 31.33 mmol/L
CHLORIDE [2]: 100.83 MEQ/L
CHOLESTEROL [2]: 62.33 mg/dL
CREATINE PHOSPHOKINASE [2]: 248.33 u/L
CREATININE [2]: 0.2 mg/dL
GLUCOSE [2]: 135.67 mg/dL
LACTATE DEHYDROGENASE [2]: 141.33 u/L
LIPASE [2]: 9.5 u/L
PHOSPHORUS [2]: 10.73 mg/dL
POTASSIUM [2]: 6.07 MEQ/L
SODIUM [2]: 145.35 MEQ/L
TOTAL BILIRUBIN [2]: 0.22 mg/dL
TOTAL PROTEIN [2]: 6.12 G/DL
URIC ACID [2]: 0.63 mg/dL
ABSOLUTE BASOPHIL [3]: 0 CELLS/uL
ABSOLUTE EOSINOPHIL [3]: 0 CELLS/uL
ABSOLUTE LYMPHOCYTE [3]: 8790 CELLS/uL
ABSOLUTE MONOCYTE [3]: 67.33 CELLS/uL
ABSOLUTE SEGMENTED NEUTROPHIL [3]: 776 CELLS/uL
BASOPHIL [3]: 0%
EOSINOPHIL [3]: 0%
ERYTHROCYTE COUNT [3]: 5.45 x10E6/uL
HEMATOCRIT [3]: 33.93%
HEMOGLOBIN [3]: 13.23 G/DL
LEUKOCYTE COUNT [3]: 9.63 x10E3/uL
LYMPHOCYTE [3]: 91.33%
MEAN CORPUSCULAR HEMOGLOBIN [3]: 24.3 pg
MEAN CORPUSCULAR HEMOGLOBIN CONCENTRATION [3]: 39 G/DL
MEAN CORPUSCULAR VOLUME [3]: 62.37 fL
MONOCYTE [3]: 0.67%
NEUTROPHIL [3]: 8%
NUCLEATED RED BLOOD CELLS [3]: 0.33 /100WBC
PLATELET COUNT [3]: 926 x10E3/uL
ALANINE AMINOTRANSFERASE [3]: 53.33 u/L
ALBUMIN [3]: 4.17 G/DL
ALKALINE PHOSPHATASE [3]: 410.67 u/L
ASPARTATE AMINOTRANSFERASE [3]: 78 u/L
BLOOD UREA NITROGEN [3]: 11.33 mg/dL
CARBON DIOXIDE [3]: 33 mmol/L
CHLORIDE [3]: 98.67 MEQ/L
CHOLESTEROL [3]: 91.33 mg/dL
CREATINE PHOSPHOKINASE [3]: 269.33 u/L
CREATININE [3]: 0.34 mg/dL
GLUCOSE [3]: 123 mg/dL
LACTATE DEHYDROGENASE [3]: 147.67 u/L
LIPASE [3]: 11 u/L
PHOSPHORUS [3]: 10.97 mg/dL
POTASSIUM [3]: 6.8 MEQ/L
SODIUM [3]: 143.6 MEQ/L
TOTAL BILIRUBIN [3]: 0.23 mg/dL
TOTAL PROTEIN [3]: 6.13 G/DL
URIC ACID [3]: 0.8 mg/dL
